# What was measured:
# [1] = Modified Irwin procedure: overt behavioural and physiological parameters after a single intraperitoneal dose; assay type: in vivo, Male CD-1 (ICR) mice; settings: for behavioural or physiological changes (modified Irwin): single dose, 3 mice, assessed 0.25-24 h
# Protocol: (§1) MCF-013 was formulated as a clear solution by dissolving in 10% final volume ethanol and then making up to full volume with saline at concentrations of 0.1, 0.3, 1 and 4 mg provided material/mL. This provided doses of 1, 3, 10 and 40 mg provided material/kg when administered intraperitoneally in 10 ml/kg dosing volumes.
# (§2) Male CD-1 (ICR) mice were acclimatised to the procedure room. Groups of 3 mice were administered with vehicle (ethanol:saline) [10:90], or MCF-013 at 1, 3, 10 or 40 mg/kg intraperitoneally in 10 mL/kg dosing volumes. Doses were administered in an escalating dose order. […] These tissues were then excised and weighed and any with overt macroscopic abnormalities were to be placed in 10 volumes neutral buffered formalin solution (Sigma Cat no: HT501128).
# [2] = Gross macroscopic examination and weighing of major organs at 24 h after dosing; assay type: in vivo, Male CD-1 (ICR) mice
# Protocol: as §1, §2
smiles,measurement,setting,value
"O=C(Nc1ccccc1OCCOc1ccc(O)c(O)c1OC[C@H]1O[C@@H](O)[C@H](O)[C@@H](O)[C@@H]1O)c1cccc(O)c1O [MCF-013, N-{o-[2-(2-{[(2R,3S,4S,5R,6R)-3,4,5,6-Tetrahydroxytetrahydro-2Hpyran-2-yl]methoxy}-3,4-dihydroxyphenoxy)ethoxy]phenyl}2,3-dihydroxybenzamide]",behavioural or physiological changes (modified Irwin),[1]; 1 mg/kg intraperitoneally,"One of three mice (No. 6) showed slight hunched posture at 0.5 and 1h, and slight piloerection 0.5 h after dosing"
same,behavioural or physiological changes (modified Irwin),[1]; 3 mg/kg intraperitoneally,One of three animals (mouse 9) showed slight hunched posture at 0.25 h after dosing
same,behavioural or physiological changes (modified Irwin),[1]; 10 mg/kg intraperitoneally,no behavioural or physiological changes were noted
same,behavioural or physiological changes (modified Irwin),[1]; 40 mg/kg intraperitoneally,no behavioural or physiological changes were noted
same,tolerability over a 24 h period,"[1]; 1, 3, 10 and 40 mg provided material/kg intraperitoneally, mice, compared with ethanol:saline [10:90] vehicle",well tolerated
same,gross macroscopic examination of the major organs,[2]; 1 mg/kg intraperitoneally,caecum of mouse 6 was noted to be slightly distended with air
same,organ weights,[2]; 1 mg/kg intraperitoneally,normal
same,gross macroscopic examination of the major organs,[2]; 3 mg/kg intraperitoneally,no abnormalities
same,organ weights,[2]; 3 mg/kg intraperitoneally,normal
same,gross macroscopic examination of the major organs,[2]; 10 mg/kg intraperitoneally,no abnormalities
same,organ weights,[2]; 10 mg/kg intraperitoneally,normal
same,gross macroscopic examination of the major organs,[2]; 40 mg/kg intraperitoneally,no abnormalities
same,organ weights,[2]; 40 mg/kg intraperitoneally,normal

# — patent US20220296722A1, “CONJUGATES AND CONJUGATES FOR USE IN PREVENTING OR TREATING OF BRAIN DAMAGE AND NEURODEGENERATIVE DISEASES” (MEDICORTEX FINLAND OY, priority 2019, published 2022)
